For series [1], the target named is T1, peripheral site of AChE from bovine erythrocytes (Bos taurus, UniProt P23795).
T1 construct: A solution of AChE from bovine erythrocytes; from tissue; host or cells: bovine erythrocytes
T1 sequence (P23795 31-614 isoform P23795-2 limits assumed): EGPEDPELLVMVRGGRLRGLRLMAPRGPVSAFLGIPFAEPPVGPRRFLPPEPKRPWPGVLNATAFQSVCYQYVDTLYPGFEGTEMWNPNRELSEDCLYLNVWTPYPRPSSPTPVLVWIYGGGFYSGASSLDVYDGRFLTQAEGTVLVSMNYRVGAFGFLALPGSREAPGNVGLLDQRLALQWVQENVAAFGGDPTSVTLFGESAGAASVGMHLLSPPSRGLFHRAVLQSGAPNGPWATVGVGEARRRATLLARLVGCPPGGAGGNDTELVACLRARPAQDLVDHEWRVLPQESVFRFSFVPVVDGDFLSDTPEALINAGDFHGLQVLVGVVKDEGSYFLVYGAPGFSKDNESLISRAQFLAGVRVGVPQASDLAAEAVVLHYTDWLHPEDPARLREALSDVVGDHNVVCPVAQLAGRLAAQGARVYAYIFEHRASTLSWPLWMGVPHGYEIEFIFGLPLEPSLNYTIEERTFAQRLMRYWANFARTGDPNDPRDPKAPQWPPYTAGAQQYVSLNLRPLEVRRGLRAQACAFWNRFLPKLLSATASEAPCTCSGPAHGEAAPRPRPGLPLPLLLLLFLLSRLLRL
Description: biochemical. Conditions: for inhibition at 0.3 µM: compound 0.3 micromolar (concentration of maximum reduction). The class given is binding.
Description: A competition test for the peripheral site of acetylcholinesterase was carried out with the compounds at concentrations of 0.3, 1 and 3 micromolar.
A solution of AChE from bovine erythrocytes at the concentration of 5 micromolar in Tris buffer 0.1 milimolar and pH 8 was used.

For series [2], the target named is T2, purified AChE from Electrophorus electricus (Electrophorus electricus, UniProt O42275).
T2 construct: using purified AChE from Electrophorus electricus; from tissue
Description: Inhibition of acetylcholinesterase (method of Rappaport). The class given is biochemical. The method, then: For this reason, it was considered interesting to evaluate the capacity to inhibit AChE of the compounds of the present invention. This evaluation was performed following the method of Rappaport (Clin. Chim. Acta 1959, 4, 227), using purified AChE from Electrophorus electricus and acetylcholine chloride (29.5 milimolar) as substrate. The reaction took place in a final volumen of 2.5 milliliters of an aqueous solution containing 0.78 units of AChE and m-nitrophenol at 1.9 milimolar to produce a yellow color, which is lost in function of the enzyme activity.
Curves of inhibition were made incubating with the compounds of the present invention for 30 minutes and a sample without any compound was prepared to determine the 100% of the enzymatic activity. After 30 minutes of incubation, the loss of yellow color was evaluated by measuring absorbance at 405 nanometers in a spectrophotometric microplate reader (iEMS Reader MF, Labsystems). The concentration of compound producing 50% inhibition of AChE activity (IC50) was calculated transforming the values of absorbance to enzymatic activity Rappaport units extrapolating from a calibration curve previously obtained.
The results of inhibition of AChE, expressed as the concentration which inhibits 50% of activity (IC50) for the compounds of the present invention, are the following: […]

Series [3] concerns human neuroblastoma cell line SH-SYSY. Description: Neuroprotection against hydrogen peroxide-induced cell death (LDH release). Format: cell-based. As to conditions: for inhibition at 3 µM: compound 3 micromolar (concentration of maximum protection); for inhibition at 1 µM: compound 1 micromolar (concentration of maximum protection); for inhibition at 30 µM: compound 30 micromolar (concentration of maximum protection); for inhibition at 10 µM: read-out: Protection (%).

Series [4] has the same test system. Briefly: Neuroprotection against rotenone plus oligomycin A-induced cell death (LDH release). As to conditions: rotenone (30 micromolar) plus oligomycin A (10 micromolar). (In general: LDH in the medium is a marker of cell lysis.)
Description: With this goal in mind, the cytoprotective effect of the compounds was evaluated in human neuroblastoma cells, specifically the neuroprotective potential of these compounds against oxidative stress produced in two different models: with hydrogen peroxide as exogenous generator of free radicals, and with rotenone and oligomycin A, blockers of the mitochondrial respiratory chain, as described in J. Neurochem.
In the assays, SH-SYSY were sub-cultured in 48-well plates with a density of seed of 5×10^5 cells per well, or in 96-well plates with a density of 2×10^5 cells per well. In the cytotoxicity experiments, cells prepared in this way were treated with the compounds to test, in DMEM free of serum.
To study the cytoprotective action of different compounds against cell death induced by hydrogen peroxide 30 micromolar or by a combination of rotenone 30 micromolar with oligomycin A 10 micromolar, compounds were added to the medium and maintained there for 24 hours. Then, media were replaced by fresh media still containing the compound plus the cytotoxic agent, and were maintained there for an additional period of 24 hours. Cell viability was checked by measuring the activity of the enzyme LDH, as it was explained before, using the kit “Cytotoxicity Cell Death” (Roche-Boehringer Mannheim) following the instructions of the manufacturer. Total LDH activity was defined as the sum of intra plus extra LDH activities. Released LDH was defined as the percentage of extracellular compared with total LDH activity.
In all the pharmacological experiments a positive control was used as comparison and to evaluate the reliability of the method used.
For series [5] the following is noted: PAMPA.
Description: (§1) The experiments were performed using two 96-well microplate in a sandwich assembly. The top microplate (Millipore, Ref MAIPS4510) is provided with 96 hydrophobic PVDF filters, where a solution of a lipid extract of pig brain (Avanti Polar Lipids) in dodecane is put down.
(§2) The bottom microplate has 96 tear-shaped wells (Millipore, Ref. MAMCS9610). The acceptor 96-well microplate was filled with 180 μL per well of a mixture of phosphate buffer saline pH 7.4 (PBS) and EtOH in proportion 90:10. The filter surface of the donor microplate was impregnated with 4 μL of a solution of lipid extract from pig brain in dodecane (20 mg mL^−1). Compounds were dissolved in PBS/EtOH (90:10) and then 180 μL were added to the donor microplate, which is carefully placed on the receiver plate. After 120 minutes of incubation at 25° C., plate donor is carefully separated and determined the concentration of the compounds in the acceptor plate by UV spectroscopy. This method measures the permeability, expressed as the rate of passage of a given barrier in 10^−6 centimeter per second (10^−6 cm s^−1). The results are expressed as the mean plus/minus the standard deviation of three independent assays, each containing four replicates of each tested compound.
Another series can be described thus: in vitro. Conditions: pig, PAMPA, pH 7.4.
[6] abbreviates: 30 minutes incubation, acetylcholine chloride 29.5 milimolar as substrate, read-out: AChE-I, IC50.
The mark [7] stands for this setting: oxygen peroxide (60 micromolar) stimulus, SH-SYSY, LDH.
Where [8] appears, read: compound 3 micromolar (concentration of maximum reduction), propidium 20 micromolar, AChE 5 micromolar, read-out: Protection (%) (percentage of the reduction in propidium fluorescence).
The mark [9] stands for this setting: compound 3 micromolar (concentration of maximum protection).
[10] abbreviates: read-out: Protection (%) (percentage of the reduction in propidium fluorescence).
The mark [11] stands for this setting: compound 0.3 micromolar (concentration of maximum protection).
Where [12] appears, read: oxygen peroxide (60 micromolar) stimulus, compound 10 micromolar (concentration of maximum protection), SH-SYSY, LDH.
Where [13] appears, read: propidium 20 micromolar, AChE 5 micromolar, read-out: Protection (%) (percentage of the reduction in propidium fluorescence).

Like-named read-outs stand apart in the source and are kept apart here.

T2 sequence (O42275 24-633): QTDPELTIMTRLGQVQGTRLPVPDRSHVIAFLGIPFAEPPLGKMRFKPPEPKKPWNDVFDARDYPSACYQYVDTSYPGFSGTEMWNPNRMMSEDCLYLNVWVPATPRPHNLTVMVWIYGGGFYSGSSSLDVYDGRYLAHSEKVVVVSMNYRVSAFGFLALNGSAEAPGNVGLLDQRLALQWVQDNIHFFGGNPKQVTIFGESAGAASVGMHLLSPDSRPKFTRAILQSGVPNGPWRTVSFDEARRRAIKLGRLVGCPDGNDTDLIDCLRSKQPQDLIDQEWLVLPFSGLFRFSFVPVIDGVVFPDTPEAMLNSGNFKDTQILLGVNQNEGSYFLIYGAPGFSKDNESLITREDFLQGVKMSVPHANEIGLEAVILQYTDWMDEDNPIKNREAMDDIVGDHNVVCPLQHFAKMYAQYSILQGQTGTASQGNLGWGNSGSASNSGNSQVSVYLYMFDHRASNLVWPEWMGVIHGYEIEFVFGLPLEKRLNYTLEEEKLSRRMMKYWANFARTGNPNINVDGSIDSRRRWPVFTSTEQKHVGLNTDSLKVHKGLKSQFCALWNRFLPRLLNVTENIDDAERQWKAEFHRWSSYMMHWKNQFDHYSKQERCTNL
Description for in vitro: as §1, §2

For `C=CC[N+](C)(C)c1ccc(CCC(=O)CCc2ccc([N+](C)(C)CC=C)cc2)cc1.[Br-].[Br-]` [BW284c51, reference compound], the “Protection (%) (percentage of the reduction in propidium fluorescence)” value in series [1] (positive control at 1000 micromolar (1 milimolar), propidium 20 micromolar, AChE 5 micromolar) is 24.5%.

A word on the IC50: it is the concentration that inhibits the measured activity by half. `CCCCCCOC(=O)C(CCC(=O)NCCC1CCN(Cc2ccccc2)CC1)NC(=O)Cc1cc2ccc(Cl)cc2s1` (stereo not shown) [Example 1.5, n-hexyl 4-[2-(1-benzyl-piperidin-4-yl)-ethylcarbamoyl]-2-[2-(6-chloro-benzo[b]thiophen-2-yl)-acetylamino]-butyrate]: the IC50 in series [2] (setting [6]) amounted to 2300 nM. Also, the inhibition at 3 µM in series [3] (setting [7]) came to 32.5%; in series [1] (setting [8]), 23.4%.

In the case of `CCCCCCOC(=O)C(CCC(=O)NCCC1CCN(Cc2ccccc2)CC1)NC(=O)c1cc2ccccc2s1` (stereo not shown) [Example 1.4, n-hexyl 2-[(benzo[b]tiofen-2-carbonyl)-amino]-4-[2-(1-benzyl-piperidin-4-yl)-ethylcarbamoyl]-butyrate], the IC50 in series [2] (read-out: AChE-I, IC50) worked out at 2500 nM. Moreover, in series [3] (setting [7]), the inhibition at 1 µM worked out at 28.7%. Further, the inhibition at 3 µM in series [1] (setting [8]) amounted to 39.7%.

With `Cc1c(C)c2c(c(C)c1O)CCC(C)(C(=O)O)O2` (stereo not shown) [Trolox, trolox, reference compound], the “Protection (%)” value in series [4] (setting [9]) came out at 52.9%. The inhibition at 30 µM in series [3] (setting [7]) came to 57.7%.

Broadly, the Papp is the rate of passage across a membrane or cell layer, normalised by area and donor concentration. High values mean fast passage, low ones slow passage. `CCCCCCOC(=O)C(CCC(=O)NCCC1CCN(Cc2ccccc2)CC1)NC(=O)OC(C)(C)C` (stereo not shown) [Example 1.2, n-hexyl 4-[2-(1-benzylpiperidin-4-yl)-ethylcarbamoyl]-2-tert-butoxycarbonylamino-butyrate]: in series [2], the IC50 amounted to 5000 nM. Further, the values for the inhibition at 1 µM in series [3] (setting [7]) and in series [1] (setting [10]) were 24.9% and 43.6%, respectively. In addition, in series [5], the “Classification (CNS penetration)” value was “CNS+”. In the series “in vitro”, this molecule showed a Papp at 120 min of 4.4 ± 0.1 ×10⁻⁶ cm/s.

With `CCCCCCOC(=O)C(CCC(=O)NCCC1CCN(Cc2ccccc2)CC1)NC(=O)OCc1ccccc1` (stereo not shown) [Example 1.1, n-hexyl 2-benzyloxycarbonylamino-4-[2-(1-benzylpiperidin-4-yl)-ethylcarbamoyl]-butyrate], the IC50 in series [2] amounted to 1400 nM. Moreover, the inhibition at 10 µM in series [3] was 39.1%. For the same molecule, the inhibition at 3 µM in series [1] (setting [10]) worked out at 29.3%.

As for `CCCCCCOC(=O)C(CCC(=O)NCCC1CCN(Cc2ccccc2)CC1)NC(=O)c1ccccc1` (stereo not shown) [Example 1.3, n-hexyl 2-benzoylamino-4-[2-(1-benzylpiperidin-4-yl)-ethylcarbamoyl]-butyrate], the IC50 in series [2] (setting [6]) stood at 1900 nM. Also, the “Protection (%)” value in series [4] (setting [11]) turned out to be 47.9%. Also, the inhibition at 3 µM in series [3] (setting [7]) turned out to be 68.1%; in series [1] (setting [8]), 37.3%.

For the molecule `CCCCCCOC(=O)C(CCC(=O)NCCC1CCN(Cc2ccccc2)CC1)NC(=O)c1cccs1` (stereo not shown) [Example 1.8, n-hexyl 4-[2-(1-benzyl-piperidin-4-yl)-ethylcarbamoyl]-2-[(thiophen-2-carbonyl)-amino]-butyrate], the IC50 in series [2] (setting [6]) is 3500 nM. In addition, the “Protection (%)” value in series [4] (compound 0.1 micromolar (concentration of maximum protection)) was found to be 48.9%. Besides, the inhibition at 10 µM in series [3] (setting [12]) was determined as 73%. Moreover, the “Classification (CNS penetration)” value in series [5] is recorded as “CNS+”. This molecule had an apparent permeability (Papp) at 120 min in “in vitro” of 5.3 ± 0.01 ×10⁻⁶ cm/s. In series [1] (setting [8]), the inhibition at 3 µM was found to be 15%.

As to `CCCCCCOC(=O)C(CCC(=O)NCCC1CCN(Cc2ccccc2)CC1)NC(=O)c1cc2cccnc2s1` (stereo not shown) [Example 1.6, n-hexyl 4-[2-(1-benzyl-piperidin-4-yl)-ethylcarbamoyl]-2-[(thieno[2,3-b]piridin-2-carbonyl)-amino]-butyrate], in series [2] (setting [6]), the half-inhibitory concentration (IC50) turned out to be 3250 nM. The molecule further came in with an inhibition at 30 µM in series [3] (setting [7]) of 48.8%. Moreover, in series [5], the “Classification (CNS penetration)” value is “CNS+”. The molecule also came in with a Papp at 120 min in “in vitro” of 3.2 ± 0.01 ×10⁻⁶ cm/s. For the same molecule, in series [1] (setting [13]), the inhibition at 0.3 µM worked out at 37.4%.

As for `CCCCCCOC(=O)C(CCC(=O)NCCC1CCN(Cc2ccccc2)CC1)NC(=O)c1cc2ccsc2s1` (stereo not shown) [Example 1.7, n-hexyl 4-[2-(1-benzyl-piperidin-4-yl)-ethylcarbamoyl]-2-[(thieno[2,3-b]thiophen-2-carbonyl)-amino]-butyrate], the half-maximal inhibitory concentration (IC50) in series [2] (setting [6]) was found to be 3500 nM. Further, the “Protection (%)” value in series [4] (setting [11]) is given as 46.1%. In series [3] (setting [12]), the inhibition at 10 µM was 46.4%. The inhibition at 0.3 µM in series [1] (setting [13]) worked out at 42.2%.

On to `CCCCCCOC(=O)C(CCC(=O)NCCC1CCN(Cc2ccccc2)CC1)NC(=O)c1cc(Br)cs1` (stereo not shown) [Example 1.9, n-hexyl 4-[2-(1-benzyl-piperidin-4-yl)-ethylcarbamoyl]-2-[(4-bromo-thiophen-2-carbonyl)-amino]-butyrate], for which the IC50 in series [2] (setting [6]) came to 1200 nM. Besides, the “Protection (%)” value in series [4] (setting [9]) amounted to 35.9%. Besides, in series [3] (setting [7]), the inhibition at 3 µM is 84.3%. In addition, the inhibition at 0.3 µM in series [1] (setting [13]) worked out at 11.3%.

Values taken from patent US20100305157A1 (priority 2007, published 2010).
